Results: US12473324B2, “Triazine-based amphiphilic compound and use thereof” (INDUSTRY-UNIVERSITY COOPERATION FOUNDATION HANYANG …, priority 2019, dated 2025)

Key:
[1] = Critical micelle concentration (CMC) by fluorescent dye diphenylhexatriene (DPH); assay type: physicochemical; details: DPH fluorescence
Procedure: A method of measuring the CMC is not particularly limited, but a method widely known in the art may be used, and for example, the CMC may be measured by a fluorescent staining method using diphenylhexatriene (DPH).
(§1) Specifically, the critical micelle concentrations (CMCs) were measured using a fluorescent dye, diphenylhexatriene (DPH), and the hydrodynamic radii (Rh) of micelles formed by each preparation (1.0 wt %) were determined by a dynamic light scattering (DLS) experiment. The measured results are shown in Table 1 compared to DDM which is an existing amphiphilic molecule (detergent).

[2] = Hydrodynamic radius (Rh) of micelles by dynamic light scattering (DLS); assay type: physicochemical; details: 1.0 wt % detergent
Procedure: A method of measuring the radius of micelle is not particularly limited, but a method widely known in the art may be used, and for example, the radius of micelle may be measured using a dynamic light scattering (DLS) experiment.
as §1

[3] = tested on: leucine transporter (LeuT); experiment: LeuT structural stability: [3H]-Leu binding by scintillation proximity assay (SPA); assay type: biochemical, Aquifex aeolicus; details: CMC+0.04 wt % or CMC+0.2 wt %, room temperature, 13-day incubation, [3H]-Leu SPA
Procedure: Experiments were performed to measure the structural stability of the LeuT protein by TSMs, TTGs and TEMs. Each amphiphilic compound was used at a concentration of (a) CMC+0.04 wt % or (b) CMC+0.2 wt %, and the substrate binding properties of LeuT were measured using [^3H]-Leu via scintillation proximity assay (SPA). The measurement was performed at regular intervals over the course of a 13-day and 12-day incubation at room temperature, respectively.
Specifically, a wild-type leucine transporter (LeuT) derived from the thermophilic bacterium Aquifex aeolicus was purified by a previously described method (Nature 1998, 392, 353-358 by G. Deckert et al.). LeuT was expressed in E. coli C41 (DE3) transformed with pET16b encoding the C-terminal 8×His-tagged transporter (expression plasmids were provided from Dr E. Gouaux, Vollum Institute, Portland, Oregon, USA). In summary, after a bacterial membrane was isolated and solubilized in 1 wt % DDM, the protein was bound to Ni^2+-NTA resin (Life Technologies, Denmark), and eluted in 20 mM Tris-HCl (pH 8.0), 1 mM NaCl, 199 mM KCl, 0.05% (w/v) DDM and 300 mM imidazole. Then, the purified LeuT (0.5 mg/ml) was diluted with buffers supplemented with TSMs, TTGs, TEMs or DDM at a final concentration of CMC+0.04% (w/v) or CMC+0.2% (w/v) except for DDM and imidazole in the equivalent buffer described above. Protein samples were incubated at room temperature for 13 days, centrifuged at a specified time, and protein properties were confirmed by measuring [^3H]-Leucine binding ability using SPA. SPA was performed with 5 μL of each protein sample in a buffer containing 450 mM NaCl and each of TSMs and TEMs (or DDM). The SPA reaction was performed in the presence of 20 nM [^3H]-Leucine and 1.25 mg/ml copper chelate (His-Tag) YSi beads (PerkinElmer, Denmark). Overall [^3H]-Leucine coupling to each sample was measured using a MicroBeta liquid scintillation counter (Perkin Elmer).

[4] = target: human β2 adrenergic receptor (β2AR) (Homo sapiens, UniProt P07550); experiment: β2AR stability: [3H]-dihydroalprenolol (DHA) ligand binding assay; details: CMC+0.2 wt %, room temperature, 6 days, [3H]-DHA
Procedure: Experiments were performed to measure the structural stability of the human β2 adrenergic receptor (β2AR) and G-protein-coupled receptor (GPCR) by TSMs, TTGs and TEMs. That is, a receptor purified by DDM was subjected to amphiphilic molecular exchange when diluted with a buffer solution containing only each of TSMs, TTGs and TEMs without cholesteryl hemisuccinate (CHS) or a buffer solution containing CHS and DDM. The final concentration of the amphiphilic molecule was CMC+0.2 wt %, and the ligand binding properties of the receptor were measured by binding of [^3H]-dihydroalprenolol ([^3H]-DHA). Specifically, the following method was used for a radioligand binding test. β2AR was purified using 0.1% DDM (D. M. Rosenbaum et al., Science, 2007, 318, 1266-1273.) and finally concentrated to about 10 mg/ml (about 200 μM). A master binding mixture containing 10 nM [^3H]-dihydroalprenolol (DHA) supplemented with 0.5 mg/ml BSA in 0.2% amphiphilic compounds (DDM, TSMs, TTGs or TEMs) was prepared using β2AR purified with DDM. Receptors purified with DDM, TSMs, TTGs or TEMs were incubated with 10 nM [^3H]-DHA at room temperature for 6 days. The mixture was loaded onto a G-50 column and a flow through was collected with 1 ml of a binding buffer (20 mM HEPES supplemented with 0.5 mg/ml BSA and 20×CMC each amphiphilic compound, pH 7.5, 100 mM NaCl), and filled with 15 ml of a scintillation fluid. Receptor-bound [^3H]-DHA was measured by a scintillation counter (Beckman). The binding of [^3H]-DHA is shown as a column graph.

[5] = Solubility of detergent (Table 1); assay type: physicochemical

human β2 adrenergic receptor (β2AR), sequence (P07550 whole entry): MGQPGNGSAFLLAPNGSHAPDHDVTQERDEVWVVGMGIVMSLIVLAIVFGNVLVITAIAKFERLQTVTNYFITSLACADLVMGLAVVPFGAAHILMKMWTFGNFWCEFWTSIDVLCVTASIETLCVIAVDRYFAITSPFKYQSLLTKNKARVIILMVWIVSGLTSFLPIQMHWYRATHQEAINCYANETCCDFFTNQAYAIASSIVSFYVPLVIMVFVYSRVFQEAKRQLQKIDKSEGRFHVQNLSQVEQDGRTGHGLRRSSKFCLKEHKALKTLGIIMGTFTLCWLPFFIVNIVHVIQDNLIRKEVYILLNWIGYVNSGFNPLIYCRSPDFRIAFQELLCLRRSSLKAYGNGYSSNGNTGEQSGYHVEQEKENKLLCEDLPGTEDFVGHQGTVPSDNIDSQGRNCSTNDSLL

| SMILES | CMC [1] | Rh (nm) [2] | LeuT substrate binding properties over incubation [3] | β2AR long-term ligand binding retention [4] | solubility [5] |
| --- | --- | --- | --- | --- | --- |
| CCCCCCCCCCSc1nc(NC(CO[C@@H]2O[C@H](CO)[C@@H](O)[C@H](O)[C@H]2O)(CO[C@@H]2O[C@H](CO)[C@@H](O)[C@H](O)[C@H]2O)CO[C@@H]2O[C@H](CO)[C@@H](O)[C@H](O)[C@H]2O)nc(SCCCCCCCCCC)n1 [TTG-T10] | ~0.006 mM | 3.6 ± 0.10 nm | best substrate binding activity | better in maintaining the ligand binding ability of the receptor than DDM | ~10% |
| CCCCCCCSc1nc(NC(CO[C@@H]2O[C@H](CO)[C@@H](O[C@H]3O[C@H](CO)[C@@H](O)[C@H](O)[C@H]3O)[C@H](O)[C@H]2O)CO[C@@H]2O[C@H](CO)[C@@H](O[C@H]3O[C@H](CO)[C@@H](O)[C@H](O)[C@H]3O)[C@H](O)[C@H]2O)nc(SCCCCCCC)n1 [TSM-T7] | ~0.01 mM | 3.6 ± 0.1 nm | – | better in maintaining the ligand binding ability of the receptor than DDM | ~10% |
| CCCCCCCCCSc1nc(NC(CO[C@@H]2O[C@H](CO)[C@@H](O)[C@H](O)[C@H]2O)(CO[C@@H]2O[C@H](CO)[C@@H](O)[C@H](O)[C@H]2O)CO[C@@H]2O[C@H](CO)[C@@H](O)[C@H](O)[C@H]2O)nc(SCCCCCCCCC)n1 [TTG-T9] | ~0.010 mM | 3.3 ± 0.11 nm | – | better in maintaining the ligand binding ability of the receptor than DDM | ~10% |
| CCCCCCCCCCCOc1nc(NC(CO[C@@H]2O[C@H](CO)[C@@H](O[C@H]3O[C@H](CO)[C@@H](O)[C@H](O)[C@H]3O)[C@H](O)[C@H]2O)CO[C@@H]2O[C@H](CO)[C@@H](O[C@H]3O[C@H](CO)[C@@H](O)[C@H](O)[C@H]3O)[C@H](O)[C@H]2O)nc(OCCCCCCCCCCC)n1 [TSM-E11] | ~0.002 mM | 56.2 ± 9.9 nm | – | better in maintaining the ligand binding ability of the receptor than DDM | ~1% |
| CCCCCCCCCCCSc1nc(NC(CO[C@@H]2O[C@H](CO)[C@@H](O)[C@H](O)[C@H]2O)(CO[C@@H]2O[C@H](CO)[C@@H](O)[C@H](O)[C@H]2O)CO[C@@H]2O[C@H](CO)[C@@H](O)[C@H](O)[C@H]2O)nc(SCCCCCCCCCCC)n1 [TTG-T11] | ~0.004 mM | 3.7 ± 0.09 nm | best substrate binding activity | better in maintaining the ligand binding ability of the receptor than DDM | ~10% |
| CCCCCCCCCCCCSc1nc(NC(CO[C@@H]2O[C@H](CO)[C@@H](O)[C@H](O)[C@H]2O)(CO[C@@H]2O[C@H](CO)[C@@H](O)[C@H](O)[C@H]2O)CO[C@@H]2O[C@H](CO)[C@@H](O)[C@H](O)[C@H]2O)nc(SCCCCCCCCCCCC)n1 [TTG-T12] | ~0.0035 mM | 5.5 ± 0.20 nm | best substrate binding activity | better in maintaining the ligand binding ability of the receptor than DDM | ~5% |
| CCCCCCCCCCSc1nc(SCCCCCCCCCC)nc(N(CCO[C@@H]2O[C@H](CO)[C@@H](O[C@H]3O[C@H](CO)[C@@H](O)[C@H](O)[C@H]3O)[C@H](O)[C@H]2O)CCO[C@@H]2O[C@H](CO)[C@@H](O[C@H]3O[C@H](CO)[C@@H](O)[C@H](O)[C@H]3O)[C@H](O)[C@H]2O)n1 [TEM-T10] | ~0.0025 mM | 4.3 ± 0.0 nm | best substrate binding activity | – | ~5% |
| CCCCCCCCCCSc1nc(NC(CO[C@@H]2O[C@H](CO)[C@@H](O[C@H]3O[C@H](CO)[C@@H](O)[C@H](O)[C@H]3O)[C@H](O)[C@H]2O)CO[C@@H]2O[C@H](CO)[C@@H](O[C@H]3O[C@H](CO)[C@@H](O)[C@H](O)[C@H]3O)[C@H](O)[C@H]2O)nc(SCCCCCCCCCC)n1 [TSM-T10] | ~0.003 mM | 38.2 ± 1.8 nm | best substrate binding activity | – | ~5% |
| CCCCCCCCNc1nc(NCCCCCCCC)nc(NC(CO[C@@H]2O[C@H](CO)[C@@H](O)[C@H](O)[C@H]2O)(CO[C@@H]2O[C@H](CO)[C@@H](O)[C@H](O)[C@H]2O)CO[C@@H]2O[C@H](CO)[C@@H](O)[C@H](O)[C@H]2O)n1 [TTG-A8] | ~0.6 mM | 2.1 ± 0.56 nm | – | – | ~10% |
| CCCCCCCCOc1nc(NC(CO[C@@H]2O[C@H](CO)[C@@H](O[C@H]3O[C@H](CO)[C@@H](O)[C@H](O)[C@H]3O)[C@H](O)[C@H]2O)CO[C@@H]2O[C@H](CO)[C@@H](O[C@H]3O[C@H](CO)[C@@H](O)[C@H](O)[C@H]3O)[C@H](O)[C@H]2O)nc(OCCCCCCCC)n1 [TSM-E8] | ~0.02 mM | 3.6 ± 0.1 nm | best substrate binding activity | – | ~10% |
| CCCCCCCCCSc1nc(NC(CO[C@@H]2O[C@H](CO)[C@@H](O[C@H]3O[C@H](CO)[C@@H](O)[C@H](O)[C@H]3O)[C@H](O)[C@H]2O)CO[C@@H]2O[C@H](CO)[C@@H](O[C@H]3O[C@H](CO)[C@@H](O)[C@H](O)[C@H]3O)[C@H](O)[C@H]2O)nc(SCCCCCCCCC)n1 [TSM-T9] | ~0.004 mM | 5.1 ± 0.1 nm | best substrate binding activity | better in maintaining the ligand binding ability of the receptor than DDM | ~10% |
| CCCCCCCCCOc1nc(NC(CO[C@@H]2O[C@H](CO)[C@@H](O[C@H]3O[C@H](CO)[C@@H](O)[C@H](O)[C@H]3O)[C@H](O)[C@H]2O)CO[C@@H]2O[C@H](CO)[C@@H](O[C@H]3O[C@H](CO)[C@@H](O)[C@H](O)[C@H]3O)[C@H](O)[C@H]2O)nc(OCCCCCCCCC)n1 [TSM-E9] | ~0.01 mM | 4.0 ± 0.1 nm | – | – | ~10% |
| CCCCCCCCCCCNc1nc(NCCCCCCCCCCC)nc(NC(CO[C@@H]2O[C@H](CO)[C@@H](O)[C@H](O)[C@H]2O)(CO[C@@H]2O[C@H](CO)[C@@H](O)[C@H](O)[C@H]2O)CO[C@@H]2O[C@H](CO)[C@@H](O)[C@H](O)[C@H]2O)n1 [TTG-A11] | ~0.2 mM | 2.4 ± 0.11 nm | – | – | ~10% |
| CCCCCCCCSc1nc(NC(CO[C@@H]2O[C@H](CO)[C@@H](O[C@H]3O[C@H](CO)[C@@H](O)[C@H](O)[C@H]3O)[C@H](O)[C@H]2O)CO[C@@H]2O[C@H](CO)[C@@H](O[C@H]3O[C@H](CO)[C@@H](O)[C@H](O)[C@H]3O)[C@H](O)[C@H]2O)nc(SCCCCCCCC)n1 [TSM-T8] | ~0.006 mM | 4.2 ± 0.0 nm | – | better in maintaining the ligand binding ability of the receptor than DDM | ~10% |
